Laboratory results as given in PMC9138102, “The Role of ZIP9 and Androgen Receptor in the Establishment of Tight Junctions between Adult Rat Sertoli Cells” (Biology, 2022).

Legend:
Erk1/2 [1] = test: Erk1/2 phosphorylation in PASC1 cells, Western blot; type: cell-based, rat
Protocol: A total of 3 × 10^4 PASC1 cells/dish were grown in 5 cm culture dishes as described above. Cells were then incubated for 24 h with 1% FCS before testosterone or P1 were added to the medium to reach the desired final concentration. The ethanol vehicle for testosterone was added to the peptide-treated cells and untreated controls at the same concentration as in cell cultures treated with testosterone. After 24 h, the medium was aspired and the cells were washed twice in ice-cold DPBS. Cells were then incubated with 400 µL lysis buffer (Cell Signaling Technologies, Frankfurt, Germany) containing 1 µM PMSF, 1× protease inhibitor cocktail (Roche, Mannheim, Germany), and 2 µg/mL pepstatin that was added immediately before use. All further steps were carried out on ice. After 5 min of incubation, cells were detached using a cell scraper. The suspensions were then transferred into 1.5 mL vials and sonicated 5 times for 1 s each with intervals of 1 s. After centrifugation of the lysates at 4 °C and 13,000× g for 10 min, the protein concentration in the supernatants was determined at 540 nm using a bicinchoninic acid protein assay reagent kit (Pierce, Southfield, MI, USA) and a Labsystems (Helsinki, Finland) plate reader. The BSA protein standard contained lysis buffer at the same concentration as in the samples from the cell lysates. Supernatants were then aliquoted and maintained at −20 °C until further use.
A total of 10 µg protein from PASC1 cell lysates was run on SDS-PAGE gels containing 10% acrylamide and 0.3% N,N′-methylene-bis-acrylamide. Biotinylated proteins (Cell Signaling Technologies) were run in parallel as molecular weight markers. After electrophoresis, proteins were semi-dry electro-blotted onto PVDF membranes (Merck Chemicals GmbH, Schwalbach, Germany) for 30 min at […]. The membranes were then incubated for 1 h at room temperature in 5% (w/w) non-fat dry milk. Primary antibodies against phospho-Erk1/2, total-Erk1/2, or beta-actin were diluted according to the recommendations of the manufacturers and then incubated with the PVDF membranes overnight at 4 °C (see Supplementary Table S1 for all antibodies with dilutions and manufacturers). After washing in DPBS, the membranes were incubated under continuous mild agitation on an orbital shaker for 60 min at room temperature with a horseradish peroxidase-conjugated secondary antibody. An anti-biotin, HRP-conjugated antibody at a dilution of 1:2000 was also included in the mixture containing the secondary antibody in order to detect the biotinylated molecular weight marker. Antibody-labeled protein bands were visualized by enhanced chemiluminescence.
Figure 5 Western blot analysis of phospho-Erk1/2. PASC1 cells were stimulated for 24 h with various concentrations of testosterone or IAPG. (A) Phospho-Erk1/2 detection after stimulation with testosterone and (B) after stimulation with IAPG. […] For each diagram: n = 3; means ± SEM. Original Western blots are shown in Supplementary Figure S1.

Erk1/2 [2] = test: phospho-Erk1/2 immunofluorescence in PASC1 cells after AR or ZIP9 silencing; type: cell-based, rat; conditions: 10 nM testosterone or 10 µM IAPG, 24 h
Protocol: PASC1 cells were plated at a density of 3.0 × 10^4 on 24-well plates (1 mL/well) and incubated 48 h at 37 °C and 5% CO2 until a confluence of roughly 80% was reached. Cells were rinsed with DPBS and fixed with 100% ice-cold methanol (Roth, Karlsruhe, Germany) on ice for 10 min directly or after stimulation with vehicle, 10 nM testosterone, or 1 µM P1 for 24 h. Cells were then washed with DPBS three times for 5 min, and then incubated in blocking solution (PBS with 3% BSA and 0.3% Triton X-100, both from Sigma-Aldrich) for 1 h at room temperature. The blocking solution was replaced by fresh blocking solution containing the primary antibodies for detection of either AR, p-Erk1/2, p-CREB/p-ATF-1, claudin-1 (Cldn-1), or zonula occludens-1 (ZO-1) (Supplementary Table S1) and incubated overnight at 4 °C. Cells were washed 3 times with DPBS for 3 min each at RT on an orbital shaker, freshly made blocking solution with the appropriate Alexafluor 488-conjugated donkey anti-rabbit secondary antibody was added for 1 h at room temperature on an orbital shaker. After washing 3 times with DPBS, images were obtained using an inverse Olympus IX81 microscope equipped with a fluorescence system. […] The data obtained were analyzed by GraphPad Prism5 (GraphPad Software, Inc., La Jolla, CA, USA).
For silencing ZIP9 or AR expression, PASC1 cells were treated with commercially available siRNA directed against the expression of ZIP9 or the AR by following the manufacturer’s protocol (Silencer ® Select, siRNA Invitrogen, Darmstadt, Germany). The following oligonucleotides were used: 5′ […]tt3′ and 5′ […]ta 3′ (ZIP9-siRNA for ZIP9 silencing) and 5′[…]tt3′ plus 5′ […]ag 3′ (AR-siRNA for AR silencing). Negative control siRNA (nc-siRNA) was provided in the siRNA kit from the same manufacturer. After incubation of PASC1 for 48 h with ZIP9-siRNA, AR-siRNA, or nc-siRNA, preparation of samples for qRT-PCR, TER measurement, or immunofluorescence experiments were carried out as described above.

[3] = exogenous testosterone; cited from earlier work
Sertoli cell line 93RS2 = conditions: 93RS2 cells; ZIP9-mediated; cited from earlier work
Excerpt: The testosterone receptor responsible for the stimulation of the expression of TJ proteins and the formation of the BTB, however, remains to be defined. The classical androgen receptor (AR) has for decades been undisputed as the mediator of all testosterone effects, including the stimulation of TJ formation at the BTB; however, recent investigations have challenged this assumption. ZIP9, a rather recently identified membrane-bound androgen receptor and zinc transporter from the family of ZRT/IRT-like proteins (ZRT = zinc-regulated transporter; IRT = iron-regulated transporter) ...

| Compound | Total expression of Erk1/2 or beta-actin (Erk1/2 [1]) | EC50 (Erk1/2 [1]; Rattus norvegicus, 24 h per legend, within 30 min per text, 10^-10 to 10^-7 M, n = 3, means ± SEM) | Concentration needed for maximum stimulation of Erk1/2 phosphorylation (Erk1/2 [1]; testosterone) | Stimulatory effect on Erk1/2 phosphorylation, nc-siRNA versus AR-siRNA (Erk1/2 [2]) | Erk1/2 phosphorylation (green fluorescence) (Erk1/2 [2]; AR-siRNA, ** p ≤ 0.01) | Erk1/2 phosphorylation (green fluorescence) (Erk1/2 [2]; ZIP9-siRNA, ns) | Erk1/2 phosphorylation (green fluorescence) (Erk1/2 [2]; nc-siRNA, ** p ≤ 0.01) | Effect on hypothalamic–pituitary–gonadal axis hormones [3] | Effect on male fertility [3] | Germ cell production [3] | Severe side effects [3] | Expression of claudin-1 and claudin-5 (Sertoli cell line 93RS2) | TJ formation (Sertoli cell line 93RS2) | Concentration needed for maximum stimulation of Erk1/2 phosphorylation (Erk1/2 [1]; IAPG) |
| --- | --- | --- | --- | --- | --- | --- | --- | --- | --- | --- | --- | --- | --- | --- |
| C[C@]12CC[C@H]3[C@@H](CCC4=CC(=O)CC[C@@]43C)[C@@H]1CC[C@@H]2O [testosterone] | did not affect total expression of Erk1/2 or beta-actin | 0.35 nM | 0.01 µM | not significantly different from each other | responded with augmented phosphorylation of Erk1/2 | entirely prevented stimulation of Erk1/2 phosphorylation | low (Figure 6A) relative to the signal obtained in cells exposed to testosterone | prevents GnRH release from the hypothalamus and FSH and LH from the pituitary, leading to the impairment of testosterone production in Leydig cells | unfavorably affects male fertility | germ cell production under these conditions is halted | polycythemia, cardiac hypertrophy, and myocardial infarction | increased expression of claudin-1 and claudin-5 | enhanced TJ formation |  |
| IAPG | did not affect total expression of Erk1/2 or beta-actin |  |  | not significantly different from each other | responded with augmented phosphorylation of Erk1/2 | entirely prevented stimulation of Erk1/2 phosphorylation | low (Figure 6A) relative to the signal obtained in cells exposed to testosterone (Figure 6B) or IAPG |  |  |  |  |  |  | 10 µM |
